Assay results taken from US10219516B2, “Molecules having pesticidal utility, and intermediates, compositions, and processes, related thereto” (priority 2015, dated 2019).
Where two headings read alike, the source gives them in different places.

What was measured:
[1] = tested on: Beet Armyworm (Spodoptera exigua, LAPHEG); test: Bioassay on Beet Armyworm (BAW), 128-well diet tray assay; format: in vivo
Outline: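 Artificial diet surface-treated with 50 μg/cm^2 test molecule in 90:10 acetone-water, dried, then infested with one to five second instar larvae per well. Held covered and vented at 25° C., 14:10 light-dark for five to seven days; percent mortality recorded per well and averaged over eight wells.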

[2] = tested on: Cabbage Looper (Trichoplusia ni, TRIPNI); test: Bioassay on Cabbage Looper (CL), 128-well diet tray assay; format: in vivo; settings: Trichoplusia ni
Outline: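 Second-instar larvae, one to five per well, were placed on artificial diet surface-treated with 50 μg/cm^2 test molecule applied in 90:10 acetone-water and dried, eight wells per molecule. Trays were covered, vented and held at 25° C., 14:10 light-dark for five to seven days; percent mortality per well was averaged.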

[3] = Beet Armyworm, 128-well diet tray assay, read-out: BAW rating
[4] = Cabbage Looper, 128-well diet tray assay, read-out: CL rating
[5] = Species BAW (Beet Armyworm), read-out: BAW (Biological Results, rating)
[6] = Species CL (Cabbage Looper), read-out: CL (Biological Results, rating)

Row | Structure (SMILES) | pest or weed control at 50 µg/cm2 [1, 3] [%] | pest or weed control at 50 µg/cm2 [2, 4] [%] | pest or weed control at 50 µg/cm2 [1, 5] [%] | pest or weed control at 50 µg/cm2 [2, 6] [%]
1 | COc1c(Cl)cc([C@H]2[C@H](C(=O)Nc3ccc(Cl)c(C(=O)Nc4ccc(F)cc4)c3)C2(Cl)Cl)cc1Cl (relative stereo) [PF156, trans-2-Chloro-5-(2,2-dichloro-3-(3,5-dichloro-4-methoxyphenyl)cyclopropane-1-carboxamido)-N-(4-fluorophenyl)benzamide] | 50 to 100 | 50 to 100 |  | 
2 | Nc1c(F)ccc(NC(=O)c2cc(NC(=O)C3C(c4cc(F)c(F)c(F)c4)C3(Cl)Cl)ccc2Cl)c1F (stereo not drawn) [F627, N-(3-Amino-2,4-difluorophenyl)-2-chloro-5-(2,2-dichloro-3-trans-(3,4,5-trifluorophenyl)cyclopropane-1-carboxamido)benzamide] | 50 to 100 | 50 to 100 |  | 
3 | O=C(Nc1ccc(F)cc1)c1cc(NC(=O)[C@H]2[C@H](c3ccc(Cl)c(F)c3)C2(Cl)Cl)ccc1Cl (relative stereo) [PF34, trans-2-Chloro-5-(2,2-dichloro-3-(4-chloro-3-fluorophenyl)cyclopropane-1-carboxamido)-N-(4-fluorophenyl)benzamide] | 50 to 100 | 50 to 100 |  | 
4 | C[S+]([O-])c1ccc(NC(=O)c2cc(NC(=O)[C@H]3[C@H](c4cc(Cl)cc(Cl)c4)C3(Cl)Cl)ccc2Cl)cc1 (relative stereo) [F159, trans-2-Chloro-5-(2,2-dichloro-3-(3,5-dichlorophenyl)cyclopropane-1-carboxamido)-N-(4-(methylsulfinyl)phenyl)benzamide] |  |  | 50 to 100 | 50 to 100
5 | CC(C)(C)OC(=O)Nc1cccc(NC(=O)c2cc(NC(=O)[C@H]3[C@H](c4cc(Cl)cc(Cl)c4)C3(Cl)Cl)ccc2Cl)n1 (relative stereo) [F505, tert-Butyl (6-(2-chloro-5-(trans-2,2-dichloro-3-(3,5-dichlorophenyl)cyclopropane-1-carboxamido)benzamido)pyridin-2-yl)carbamate] | 50 to 100 | 50 to 100 |  | 
6 | CC(C)(C)OC(=O)N(C(=O)OC(C)(C)C)c1c(F)ccc(NC(=O)c2cc(NC(=O)C3C(c4ccc(Cl)c(Br)c4)C3(Cl)Cl)ccc2Cl)c1F (stereo not shown) [F513, tert-Butyl-N-((tert-butoxy)carbonyl)-N-(3-(5-(3-(3-bromo-4-chlorophenyl)-2,2-dichlorocyclopropane-1-carboxamido)-2-chlorobenzamido)-2,6-difluorophenyl)carbamate] | 50 to 100 | 50 to 100 |  | 
7 | Cc1cc(F)ccc1NC(=O)c1cc(NC(=O)[C@H]2[C@H](c3cc(Cl)c(Cl)c(Cl)c3)C2(Cl)Cl)ccc1Cl (relative stereo) [PF47, trans-2-Chloro-5-(2,2-dichloro-3-(3,4,5-trichlorophenyl)cyclopropane-1-carboxamido)-N-(4-fluoro-2-methylphenyl)benzamide] | 50 to 100 | 50 to 100 |  | 
8 | CN(C(=O)c1cc(NC(=O)[C@H]2[C@H](c3cc(Cl)cc(Cl)c3)C2(Br)Br)ccc1Cl)c1ccc(F)cc1 (relative stereo) [PF7, trans-2-Chloro-5-(2,2-dibromo-3-(3,5-dichlorophenyl)cyclopropane-1-carboxamido)-N-(4-fluorophenyl)-N-methylbenzamide] | 50 to 100 | 50 to 100 |  | 
9 | COc1c(Cl)cc([C@H]2[C@H](C(=O)Nc3ccc(Cl)c(C(=O)Nc4ccc(NC(C)=O)cc4)c3)C2(Cl)Cl)cc1Cl (relative stereo) [F181, trans-N-(4-Acetamidophenyl)-2-chloro-5-(2,2-dichloro-3-(3,5-dichloro-4-methoxyphenyl)cyclopropane-1-carboxamido)benzamide] |  |  | 50 to 100 | 50 to 100
10 | O=C(Nc1c(F)cccc1F)c1cc(NC(=O)[C@H]2[C@H](c3cc(C(F)(F)F)cc(C(F)(F)F)c3)C2(Cl)Cl)ccc1Cl (relative stereo) [F86, trans-5-(3-(3,5-Bis(trifluoromethyl)phenyl)-2,2-dichlorocyclopropane-1-carboxamido)-2-chloro-N-(2,6-difluorophenyl)benzamide] |  |  | 50 to 100 | 50 to 100
11 | CN(C(=O)c1cc(NC(=O)[C@H]2[C@H](c3cc(Cl)c(Cl)c(Cl)c3)C2(Cl)Cl)ccc1Cl)c1ccc(C#N)cc1F (relative stereo) [F108, trans-2-Chloro-N-(4-cyano-2-fluorophenyl)-5-(2,2-dichloro-3-(3,4,5-trichlorophenyl)cyclopropane-1-carboxamido)-N-methylbenzamide] |  |  | 50 to 100 | 50 to 100
12 | CN(C(=O)c1cc(NC(=O)[C@H]2[C@H](c3cc(Cl)cc(Cl)c3)C2(Cl)Cl)ccc1Cl)c1ccc(C#N)cc1F (relative stereo) [F106, trans-2-Chloro-N-(4-cyano-2-fluorophenyl)-5-(2,2-dichloro-3-(3,5-dichlorophenyl)cyclopropane-1-carboxamido)-N-methylbenzamide] |  |  | 50 to 100 | 50 to 100
13 | CSc1ccc(NC(=O)[C@H]2[C@H](c3cc(Cl)cc(Cl)c3)C2(Cl)Cl)cc1C(=O)Nc1ccc(F)cc1 (relative stereo) [F115, trans-5-(2,2-Dichloro-3-(3,5-dichlorophenyl)cyclopropane-1-carboxamido)-N-(4-fluorophenyl)-2-(methylthio)benzamide] |  |  | 50 to 100 | 50 to 100
14 | Cc1c(Cl)cc([C@H]2[C@H](C(=O)Nc3ccc(Cl)c(C(=O)Nc4c(F)cccc4F)c3)C2(Cl)Cl)cc1Cl (relative stereo) [F121, trans-2-Chloro-5-(2,2-dichloro-3-(3,5-dichloro-4-methylphenyl)cyclopropane-1-carboxamido)-N-(2,6-difluorophenyl)benzamide] |  |  | 50 to 100 | 50 to 100
15 | Nc1c(F)ccc(NC(=O)c2cc(NC(=O)C3C(c4c(F)c(F)c(F)c(F)c4F)C3(Cl)Cl)ccc2Cl)c1F (stereo not drawn) [F626, N-(3-Amino-2,4-difluorophenyl)-2-chloro-5-(2,2-dichloro-3-trans-(perfluorophenyl)cyclopropane-1-carboxamido)benzamide] | 50 to 100 | 50 to 100 |  | 
16 | O=C(Nc1c(F)cccc1F)c1cc(NC(=O)[C@H]2[C@H](c3ccccc3)C2(Cl)Cl)ccc1Cl (relative stereo) [F111, trans-2-Chloro-5-(2,2-dichloro-3-phenylcyclopropane-1-carboxamido)-N-(2,6-difluorophenyl)benzamide] |  |  | 50 to 100 | 50 to 100
17 | Cc1cc(F)cc(C)c1NC(=O)c1cc(NC(=O)[C@H]2[C@H](c3cc(Cl)cc(Cl)c3)C2(Cl)Cl)ccc1Cl (relative stereo) [PF43, trans-2-Chloro-5-(2,2-dichloro-3-(3,5-dichlorophenyl)cyclopropane-1-carboxamido)-N-(4-fluoro-2,6-dimethylphenyl)benzamide] | 50 to 100 | 50 to 100 |  | 
18 | Cc1cc([C@H]2[C@H](C(=O)Nc3ccc(Cl)c(C(=O)Nc4c(F)cccc4F)c3)C2(Cl)Cl)cc(Cl)c1Cl (relative stereo) [F125, trans-2-Chloro-5-(2,2-dichloro-3-(3,4-dichloro-5-methylphenyl)cyclopropane-1-carboxamido)-N-(2,6-difluorophenyl)benzamide] |  |  | 50 to 100 | 50 to 100
19 | CN(C(=O)c1cc(NC(=O)[C@H]2[C@H](c3cc(Cl)c(Cl)c(Cl)c3)C2(Cl)Cl)ccc1F)c1ccc(C#N)cc1F (relative stereo) [F105, trans-N-(4-Cyano-2-fluorophenyl)-5-(2,2-dichloro-3-(3,4,5-trichlorophenyl)cyclopropane-1-carboxamido)-2-fluoro-N-methylbenzamide] |  |  | 50 to 100 | 50 to 100
20 | Cc1c(Cl)cc([C@H]2[C@H](C(=O)Nc3ccc(Cl)c(C(=O)Nc4ccc(F)cc4)c3)C2(Cl)Cl)cc1Cl (relative stereo) [F119, trans-2-Chloro-5-(2,2-dichloro-3-(3,5-dichloro-4-methylphenyl)cyclopropane-1-carboxamido)-N-(4-fluorophenyl)benzamide] |  |  | 50 to 100 | 50 to 100
21 | O=C(Nc1ccc2[nH]c(C(F)(F)F)cc2c1)c1cc(NC(=O)[C@H]2[C@H](c3cc(Cl)cc(Cl)c3)C2(Cl)Cl)ccc1Cl (relative stereo) [F465, 2-Chloro-5-(trans)-(2,2-dichloro-3-(3,5-dichlorophenyl)cyclopropane-1-carboxamido)-N-(2-(trifluoromethyl)-1H-indol-5-yl)benzamide] | 50 to 100 | 50 to 100 |  | 
22 | CNc1ccc(N(C)C(=O)c2cc(NC(=O)[C@H]3[C@H](c4cc(Cl)cc(Cl)c4)C3(Cl)Cl)ccc2Cl)c(C)c1 (relative stereo) [F225, trans-2-Chloro-5-(2,2-dichloro-3-(3,5-dichlorophenyl)cyclopropane-1-carboxamido)-N-methyl-N-(2-methyl-4-(methylamino)phenyl)benzamide] |  |  | 50 to 100 | 50 to 100
23 | CN(C(=O)c1cc(NC(=O)[C@H]2[C@H](c3ccc(Cl)c(Cl)c3)C2(Cl)Cl)ccc1Cl)c1ccc(C#N)cc1F (relative stereo) [F107, trans-2-Chloro-N-(4-cyano-2-fluorophenyl)-5-(2,2-dichloro-3-(3,4-dichlorophenyl)cyclopropane-1-carboxamido)-N-methylbenzamide] |  |  | 50 to 100 | 50 to 100
